Laboratory results taken from patent publication US11330821B2, “Herbicidal compounds” (Syngenta Participations AG, priority 2015, dated 2022).

What was measured:
Assay type in all cases: in vivo
Conditions in all cases: post-emergence spray, evaluated after 13 days
[1] = system: Amaranthus retroflexus (AMARE); experiment: Post-emergence efficacy, Amaranthus retroflexus
Experimental: (§1) B1 Post-Emergence Efficacy
(§2) Seeds of a variety of test species are shown in standard soil in pots:—Solanum nigrum (SOLNI), Amaranthus retroflexus (AMARE), Setaria faberi (SETFA), Echinochloa crus-galli (ECHCG), Ipomoea hederacea (IPOHE), Lolium perenne (LOLPE). After 8 days cultivation (post-emergence) under controlled conditions in a glasshouse (at 24/16° C., day/night; 14 hours light; 65% humidity), the plants are sprayed with an aqueous spray solution derived from the formulation of the technical active ingredient in acetone/water (50:50) solution containing 0.5% Tween 20 (polyoxyethylene sorbitan monolaurate, CAS RN 9005-64-5). Compounds are applied at 1000 and 62.5 g/ha. The test plants are then grown in a glasshouse under controlled conditions in a glasshouse (at 24/16° C., day/night; 14 hours light; 65% humidity) and watered twice daily. After 13 days, the test is evaluated for the percentage damage caused to the plant. The biological activities are assessed on a five point scale (5=80-100%; 4=60-79%; 3=40-59%; 2=20-39%; 1=0-19%).

Solanum nigrum (SOLNI) = experiment: Post-emergence efficacy, Solanum nigrum
Experimental: as §1, §2

Setaria faberi (SETFA) = experiment: Post-emergence efficacy, Setaria faberi
Experimental: as §1, §2

Lolium perenne (LOLPE) = experiment: Post-emergence efficacy, Lolium perenne
Experimental: as §1, §2

[2] = system: Echinochloa crus-galli (ECHCG); experiment: Post-emergence efficacy, Echinochloa crus-galli
Experimental: as §1, §2

[3] = system: Ipomoea hederacea (IPOHE); experiment: Post-emergence efficacy, Ipomoea hederacea
Experimental: as §1, §2

Row | SMILES | AMARE percentage damage caused to the plant (five point scale) ([1]; 62.5 g/ha) | AMARE percentage damage caused to the plant (five point scale) ([1]; 1000 g/ha) | SOLNI percentage damage caused to the plant (five point scale) (Solanum nigrum (SOLNI); 62.5 g/ha) | SOLNI percentage damage caused to the plant (five point scale) (Solanum nigrum (SOLNI); 1000 g/ha) | SETFA percentage damage caused to the plant (five point scale) (Setaria faberi (SETFA); 62.5 g/ha) | SETFA percentage damage caused to the plant (five point scale) (Setaria faberi (SETFA); 1000 g/ha) | LOLPE percentage damage caused to the plant (five point scale) (Lolium perenne (LOLPE); 62.5 g/ha) | LOLPE percentage damage caused to the plant (five point scale) (Lolium perenne (LOLPE); 1000 g/ha) | ECHCG percentage damage caused to the plant (five point scale) ([2]; 62.5 g/ha) | ECHCG percentage damage caused to the plant (five point scale) ([2]; 1000 g/ha) | IPOHE percentage damage caused to the plant (five point scale) ([3]; 62.5 g/ha) | IPOHE percentage damage caused to the plant (five point scale) ([3]; 1000 g/ha)
1 | Cc1nn(C)c(=O)c(-c2c(F)ccc(Cl)c2OCc2cccnc2)c1O [Compound 1.23] | 4 (4=60-79%) | 5 (5=80-100%) | 4 (4=60-79%) | 5 (5=80-100%) | 2 (2=20-39%) | 5 (5=80-100%) | 2 (2=20-39%) | 5 (5=80-100%) | 2 (2=20-39%) | 5 (5=80-100%) | 4 (4=60-79%) | 5 (5=80-100%)
2 | Cc1nn(C)c(=O)c(-c2c(F)ccc(Cl)c2OCc2ccncc2)c1O [Compound 1.24] | 2 (2=20-39%) | 5 (5=80-100%) | 4 (4=60-79%) | 5 (5=80-100%) | 1 (1=0-19%) | 5 (5=80-100%) | 1 (1=0-19%) | 5 (5=80-100%) | 3 (3=40-59%) | 5 (5=80-100%) | 4 (4=60-79%) | 5 (5=80-100%)
3 | Cc1nn(C)c(=O)c(-c2c(F)ccc(Cl)c2OCc2nccs2)c1O [Compound 1.25] | 5 (5=80-100%) | 5 (5=80-100%) | 5 (5=80-100%) | 5 (5=80-100%) | 5 (5=80-100%) | 5 (5=80-100%) | 4 (4=60-79%) | 5 (5=80-100%) | 4 (4=60-79%) | 5 (5=80-100%) | 5 (5=80-100%) | 5 (5=80-100%)
4 | Cc1nc(COc2c(Cl)ccc(F)c2-c2c(O)c(C)nn(C)c2=O)cs1 [Compound 1.33] | 3 (3=40-59%) | 5 (5=80-100%) | 4 (4=60-79%) | 5 (5=80-100%) | 2 (2=20-39%) | 5 (5=80-100%) | 2 (2=20-39%) | 4 (4=60-79%) | 3 (3=40-59%) | 4 (4=60-79%) | 4 (4=60-79%) | 5 (5=80-100%)
5 | Cc1csc(COc2c(Cl)ccc(F)c2-c2c(O)c(C)nn(C)c2=O)n1 [Compound 1.34] | 4 (4=60-79%) | 5 (5=80-100%) | 5 (5=80-100%) | 5 (5=80-100%) | 4 (4=60-79%) | 5 (5=80-100%) | 3 (3=40-59%) | 4 (4=60-79%) | 4 (4=60-79%) | 5 (5=80-100%) | 5 (5=80-100%) | 5 (5=80-100%)
6 | Cc1nn(C)c(=O)c(-c2c(Cl)c(Cl)cc(Cl)c2OCc2cnc(Cl)s2)c1O [Compound 5.01] | 3 (3=40-59%) | 5 (5=80-100%) | 5 (5=80-100%) | 5 (5=80-100%) | 2 (2=20-39%) | 5 (5=80-100%) | 2 (2=20-39%) | 5 (5=80-100%) | 2 (2=20-39%) | 5 (5=80-100%) | 5 (5=80-100%) | 5 (5=80-100%)
